Laboratory results from patent publication US20110212116A1, “IMMUNOGENIC PEPTIDES AND USES THEREOF” (Cancer Research Technology Limited, priority 2008, published 2011).

Columns and labels:
healthy donor T cells = test: IFNγ ELISA of healthy donor T cells stimulated with peptide loaded autologous DCs; format: cell-based, human; conditions: for IFNγ responses following stimulation with autologous DCs loaded with wild type peptide: in one of three normal donors tested; for IFNγ production from normal donor T cells: modified peptides P11-P16, six normal donors
Description: PBMCs were prepared from healthy donor buffy coats as described above. Monocytes were obtained from newly sourced buffy coats, or cells thawed at 10^6/ml in warm X-VIVO medium, 1% human AB serum and plated in 90 mm TC dishes. Plates were incubated at 37° C. for at least 4 hours and non adherent cells removed by gently washing with media or HBSS or CD14^+ cells were positively selected as described. The remaining T cell enriched cells were cryopreserved for use as effectors in later assays. The CD14^+ fraction/adherent cells were cultured in IL-4 (1000 IU/ml) and GM-CSF (800 U/ml) for 5 days to induce differentiation to a dendritic cell (DC) phenotype. On day 3 fresh IL-4 and GM-CSF were added. On day 5 TNFα (10 ng/ml), IL-6 (1000 U/ml) and IL-1β (10 ng/ml) all from R&D systems UK and PGE2 (1 μg/ml) (from Sigma, UK) were added to plates. On day 6 DCs were harvested from plates and washed with HBSS to remove residual cytokines before use in immunological experiments. Analysis of DC phenotype was carried out by flow cytometry.
IL-2 and IFNγ levels were determined with Duo set ELISA Development System (R&D Systems), according to the manufacturer's instructions. Supernatants were collected at various time points (days 3, 7, 10 and 14) in order to detect peak cytokine levels.
(§1) After 24 hours in maturation cytokines, DCs were incubated with peptide (50 μg/ml) for 4 hours. PBMCs or CD3^+ cells from healthy donors or patients with solid tumours were seeded into a 12-well plate, in X-VIVO 15 at a density of 2×10^6/ml. Peptide pulsed, monocyte derived DCs were washed and prepared at 2×10^5/ml. PBMC cultures received peptide pulsed DCs at a stimulator:effector ratio of […], or in the case of unstimulated controls, medium only. IL-7 was added to cultures at a final concentration of 10 U/ml on day 3. Cultures were restimulated by addition of peptide pulsed DCs on, day 7, and in some cases day 14, together with IL-7 and IL-2 (both at 10 U/ml). 200 μl of culture supernatants were collected at various intervals throughout the culture period and replaced with fresh medium. In the case of AML patient cultures, T2 cells were pulsed with peptide and used as stimulators in the same way as autologous DCs described above. Culture supernatants were analysed for IFNγ content by ELISA. After the 2-3 week culture period, stimulated effector cells were washed and analysed by pentamer staining, intracellular cytokine staining or ELISPOT assays.

peptide loaded targets = format: cell-based
AML patient CD8+ T cells = test: Pentamer staining, AML patient CD3+ T cells stimulated with peptide loaded T2 cells; format: cell-based, human; conditions: AML patients, after two rounds of ex vivo stimulation
Description: (§2) Assessment of peptide specific T cells was carried out by staining 10^6 effector cells with 10 μl of PE labeled, HLA-A*0201 pentamers (custom made by Proimmune) for 10 minutes, at room temperature, in the dark. Cells were then washed and co-stained with CD8-FITC for 20 minutes at room temperature. The lymphocyte gate was selected according to FSSCH/SSCH and 50,000 events acquired. Staining with control pentamers was carried out for each sample.
as §1
(§3) The T2 line was first examined for immune stimulatory molecules by FACS analysis. […] T2 cells were cultured in serum free conditions to reduce the non-human antigens present in the FCS. T2 cells were incubated with peptide for 4 hours, washed and irradiated and seeded in 96 well plates. Purified T cells (Miltenyi) from patients were added and IFNγ secretion or the expansion of CD8^+ epitope specific T cells measured using pentamers.
Prior to each restimulation, cells were resuspended and aliquots taken for pentamer staining.

[1] = system: solid tumour patient CD8+ T cells; test: Pentamer staining, solid tumour patient CD3+ T cells stimulated with peptide loaded autologous DCs; format: cell-based, human
Description: as §2, §1
There have been no reports of PASD1 expression in primary head and neck, prostate or colon cancer primary cells to date, but the head and neck cancer cell line Hn5^19, the lung cancer line H1299^19 and the colon cancer cell line SW480^24 are PASD1 positive. This raises the possibility that some solid cancer patients may be able to raise a response to the PASD1 peptides. Cells used in these experiments were isolated from leukophoresis samples taken several months after the cessation of treatment. Negatively purified CD3^+ T cells were stimulated with autologous monocyte derived DCs as described previously. Pentamer analysis was carried out after each stimulation.

[2] = system: healthy donor CD8+ T cells; test: Pentamer staining, healthy donor CD3+ cells stimulated with peptide pulsed DCs; format: cell-based, human; conditions: two of four normal donors, after four stimulations
Description: as §2
as §1, with “200 μl of culture supernatants were collected at various intervals throughout the culture period and replaced with fresh medium. In the case of AML patient cultures, T2 cells were pulsed with peptide and used as stimulators in the same way as autologous DCs described above.” left out, “assays. […]” for “assays.”

patient T cells = test: IFNγ secretion by patient T cells following in vitro peptide stimulation; format: cell-based, human; conditions: colon cancer patient T cells stimulated with peptide
Description: FIG. 4. IFNγ secretion by patient T cells following in vitro stimulations. (A) IFNγ levels in peptide stimulated cultures from AML patients (same as shown in FIGS. 3 B and E) as measured by ELISpot assays. […] Graphs show IFNγ levels at day 10 (y-axis).
as §1, §3

HHD mice = test: Mouse IFNγ-ELISpot after pDOM-epitope DNA vaccination; conditions: HHD mice, prime only, 14 days later
Description: HHD mice at 6 to 10 weeks of age were injected intramuscularly (i.m.) into both quadriceps with a total of 50 μg DNA in saline solution on day 0. Unless stated otherwise mice were boosted with the same DNA vaccine delivered with in vivo electroporation on day 28 as previously described^5.
Vaccine-specific IFNγ secretion by lymphocytes from individual mice was assessed ex vivo (BD ELISpot Set, BD PharMingen, San Diego, Calif.) on day 14 or 36, as described previously with some modifications^11. Briefly, viable lymphocytes were selected from splenocyte preparations by density centrifugation. […] Data are expressed as the frequency of spot-forming cells (SFCs) per million lymphocytes. For analysis of peptide-specific T-cell sensitivity, splenic lymphocytes from immunized mice were incubated with a range of PASD1 peptide concentrations and the frequency of specific cells assessed by ELISpot analysis as described. The number of SFC/million cells at the peptide concentration inducing the greatest response was assigned a value of 100%. For each peptide concentration tested the % maximal response was then calculated by the formula: (experimental SFCs per million cells/maximal SFCs per million cells)×100% for each individual animal.

Substance | IFNγ responses following stimulation with autologous DCs loaded with wild type peptide (healthy donor T cells) | Killing of peptide loaded targets (CTL assay) (peptide loaded targets) | Secretion of IFNγ in cultures of CD4+ depleted effector cells (healthy donor T cells) | IFNγ production from normal donor T cells (healthy donor T cells) | also measured
P4: wild type PASD1 nonamer, SEQ ID NO. 1 (LQNPRDVSV; listed as Homo sapiens) | generated some IFNγ responses |  |  |  | 
P15: PASD1 peptide analogue with a single amino acid change, PASD1 587-595 (LINPRDVSV) |  | did not occur | almost completely abolished | highest levels | Pentamer positive cells, frequency of the CD8+ cells (AML patient CD8+ T cells): 0.02%; Pentamer positive cells, frequency of CD8+ cells ([1]; head and neck patient, absence of peptide stimulation): same low frequency; Pentamer positive cells, frequency of the CD8+ population ([1]; head and neck patient, after peptide stimulation (P15: three rounds)): 0.06%; Pentamer positive cells ([1]; head and neck patient, fourth stimulation): did not expand this further; Pentamer positive cells ([1]; prostate cancer patient, up to four stimulations): No pentamer positive cells were detected; Pentamer positive T cells [2]: small population; Specific IFNγ secretion by ELISpot (patient T cells): not
P8: wild type PASD1 peptide, SEQ ID NO. 9, PASD1 691-699 (RLWQELSDS; listed as Homo sapiens) | generated some IFNγ responses |  |  |  | IFNγ secretion (ELISpot) against the peptide of the immunisation (HHD mice): does not
P9: wild type PASD1 nonamer, SEQ ID NO. 11 (KLQERKKWQ; listed as Homo sapiens) | generated some IFNγ responses |  |  |  | 
P16: PASD1 peptide analogue with a single amino acid change, PASD1 587-595 (LVNPRDVSV) |  | did not occur | almost completely abolished | highest levels | 
